Assay results as given in ChEMBL document CHEMBL2401688, “Phosphinic acid-based inhibitors of tubulin polyglutamylases” (Bioorg Med Chem Lett, 2013).
Activity calls are given as the source filed them. The calls are words filed in the database; no cut-off is given here.

Experiments:
[1] = Inhibition of Escherichia coli MurD ligase
[2] = target: T1, Tubulin--tyrosine ligase (Homo sapiens) (UniProt Q8NG68); assay: Inhibition of TTL (unknown origin)
T1 sequence (whole entry): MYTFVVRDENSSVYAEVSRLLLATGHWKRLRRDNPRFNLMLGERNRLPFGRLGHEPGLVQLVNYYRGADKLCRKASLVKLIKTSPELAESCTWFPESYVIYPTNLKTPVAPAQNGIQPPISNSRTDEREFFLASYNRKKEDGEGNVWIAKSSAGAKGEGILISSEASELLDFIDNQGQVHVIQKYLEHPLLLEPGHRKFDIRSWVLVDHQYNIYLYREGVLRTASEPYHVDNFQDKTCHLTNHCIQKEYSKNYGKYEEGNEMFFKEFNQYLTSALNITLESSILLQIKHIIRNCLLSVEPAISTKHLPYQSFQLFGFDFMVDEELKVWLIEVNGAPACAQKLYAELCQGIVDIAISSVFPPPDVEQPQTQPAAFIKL

[3] = target: T2, Tubulin polyglutamylase TTLL7 (Mus musculus, UniProt A4Q9F0); assay: (§1) Inhibition of mouse recombinant N-terminal GST-tagged TTLL7-mediated Ac-DATAEEEGEFEEEAEEEVA glutamylation expressed in Escherichia coli Rosetta2 DE3 after 16 hrs by LC-MS analysis
T2 sequence (A4Q9F0 whole entry): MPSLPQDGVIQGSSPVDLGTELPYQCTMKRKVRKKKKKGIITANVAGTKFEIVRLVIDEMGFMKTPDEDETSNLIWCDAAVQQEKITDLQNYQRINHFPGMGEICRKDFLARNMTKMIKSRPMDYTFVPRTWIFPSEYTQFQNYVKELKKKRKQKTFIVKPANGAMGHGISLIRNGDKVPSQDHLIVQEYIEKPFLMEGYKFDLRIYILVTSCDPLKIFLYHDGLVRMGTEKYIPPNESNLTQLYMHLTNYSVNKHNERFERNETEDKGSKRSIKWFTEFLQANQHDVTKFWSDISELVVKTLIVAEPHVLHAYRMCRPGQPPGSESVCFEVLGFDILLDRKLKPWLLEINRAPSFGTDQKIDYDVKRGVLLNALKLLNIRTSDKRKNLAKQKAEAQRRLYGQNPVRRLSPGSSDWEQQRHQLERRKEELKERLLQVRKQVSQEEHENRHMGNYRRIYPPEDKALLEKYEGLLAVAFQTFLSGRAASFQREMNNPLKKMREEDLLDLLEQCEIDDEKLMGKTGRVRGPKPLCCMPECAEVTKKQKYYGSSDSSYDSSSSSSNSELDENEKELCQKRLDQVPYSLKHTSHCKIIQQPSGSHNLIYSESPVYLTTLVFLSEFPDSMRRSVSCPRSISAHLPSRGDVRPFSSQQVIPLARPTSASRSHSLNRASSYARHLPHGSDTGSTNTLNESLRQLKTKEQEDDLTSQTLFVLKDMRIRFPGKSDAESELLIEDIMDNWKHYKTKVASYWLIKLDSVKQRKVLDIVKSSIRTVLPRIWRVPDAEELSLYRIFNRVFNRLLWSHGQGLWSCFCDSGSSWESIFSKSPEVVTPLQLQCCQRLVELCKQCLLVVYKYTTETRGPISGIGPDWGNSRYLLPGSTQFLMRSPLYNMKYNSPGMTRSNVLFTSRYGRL

[4] = target: T3, Tubulin polyglutamylase TTLL7 (Mus musculus) (UniProt A4Q9F0); assay: as §1
T3 sequence (whole entry): T2 sequence (A4Q9F0 whole entry)

SMILES | IC50 [1] [nM] | inhibition [2] | IC50 [3] [nM] | inhibition [4]
CC(NC(=O)CCCCCOP(=O)(O)OP(=O)(O)OC[C@H]1O[C@@H](n2ccc(=O)[nH]c2=O)[C@H](O)[C@@H]1O)P(=O)(O)CC(CCC(=O)O)C(=O)O (stereo partly drawn) | 700 |  |  | 
CC(=O)N[C@H]1[C@@H](OP(=O)(O)OP(=O)(O)OC[C@H]2O[C@@H](n3ccc(=O)[nH]c3=O)[C@H](O)[C@@H]2O)O[C@H](CO)[C@@H](O)[C@@H]1O[C@H](C)C(=O)N[C@@H](C)P(=O)(O)CC(CCC(=O)O)C(=O)O (stereo partly drawn) | 1 |  |  | 
CC(=O)NC(CCC(=O)O)P(=O)(O)CC(CCC(=O)O)C(=O)O (mixture of isomers) |  | inactive | 150000 | 
CCNC(=O)[C@H](CCP(=O)(O)CC(CCC(=O)O)C(=O)O)NC(C)=O (mixture of isomers) |  | inactive |  | Active
CC(=O)N[C@@H](CCP(=O)(O)CC(CCC(=O)O)C(=O)O)C(=O)O (mixture of isomers) |  | inactive |  | Active
